Assay type in all cases: biochemical
The target of experiment [1] is T1, MMP-2 (Homo sapiens, UniProt P08253).
T1 construct: endogenous in cells; host or cells: fibroblasts cultured from AAA (abdominal aortic aneurysm) specimens
T1 sequence (P08253 110-660): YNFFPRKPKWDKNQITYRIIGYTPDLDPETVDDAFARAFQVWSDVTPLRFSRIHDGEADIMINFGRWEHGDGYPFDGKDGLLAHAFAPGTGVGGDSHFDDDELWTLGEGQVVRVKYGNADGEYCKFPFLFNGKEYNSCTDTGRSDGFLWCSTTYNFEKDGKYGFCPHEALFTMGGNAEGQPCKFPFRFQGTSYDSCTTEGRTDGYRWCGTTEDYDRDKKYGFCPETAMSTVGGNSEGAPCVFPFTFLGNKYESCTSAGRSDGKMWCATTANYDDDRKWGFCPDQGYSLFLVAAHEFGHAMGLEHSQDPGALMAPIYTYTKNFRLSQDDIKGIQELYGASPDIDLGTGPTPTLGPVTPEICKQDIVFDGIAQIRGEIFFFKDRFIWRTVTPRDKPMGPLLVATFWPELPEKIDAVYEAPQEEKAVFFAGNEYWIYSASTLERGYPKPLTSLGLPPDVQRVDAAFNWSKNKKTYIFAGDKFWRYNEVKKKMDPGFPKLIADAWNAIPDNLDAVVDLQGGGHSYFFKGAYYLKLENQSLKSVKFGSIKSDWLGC
The experiment can be described thus: MMP-2 activity in lysates of fibroblasts cultured from AAA specimens, gelatin zymography with densitometry. Conditions: for MMP-2 inhibitory ability (in words): aneurysmal fibroblast MMP-2; for MMP-2 Inhibitory Activity: relative, aneurysmal fibroblast lysates, 1 hour incubation on ice. The procedure:
Properties of different test compounds against MMP-2 activity of aneurysmal fibroblast origin were examined on 10% polyacrylamide gels containing 1.0 mg/mL of gelatin. Fibroblasts cultured from AAA specimens were lysed using the CellLytic-M lysis/extraction reagent. The protein concentration of each supernatant was determined using the Bradford method using bovine serum albumin as a standard. The aortic fibroblast lysates were incubated alone (control) or with an illustrative Compound or Extract of the Invention at various concentrations for 1 hour on ice. After test compound incubation, equivalent amounts of proteins (30 μg) were mixed with an equal volume of sample buffer (2% SDS, 125 mM Tris-HCL, pH 6.8, 10% glycerol and 0.001% bromophenol blue) and the resulting mixture was subjected to electrophoresis in Trir-glycine el. buffer (25 mMTris pH 8.3, 250 mM Glycine, 0.1% SDS) under denatured but non-reduced conditions. After completion of electrophoresis, the gels were incubated in 2% Triton X-100 for 30 min at room temperature to ensure complete removal of SDS. The gels were then incubated at 37° C. overnight in development buffer (0.005M Tris-HCl (pH 7.5), 0.2MNaCl, 0.005MCaCl2, and 0.02% Brij-35) (Bio-Rad). Gels were stained with 0.05% Coomassie blue R250 (Bio-Rad) for 30 min and destained twice in a mixture of 40% methanol and 10% acetic acid for 20 min. Enzyme activity was detected as unstained bands on a blue background. Quantity One (Bio-Rad Version 4.3.1) was used as a densitometer to quantitate test compound inhibitory ability.

Experiment [2] relates to total complement. The experiment can be described thus: Total complement activity (CH50) in human serum. Conditions: 30 minutes at 37° C. The procedure:
Blood was collected from a healthy human donor and allowed to clot at room temperature for 60 minutes. The serum was separated from the clotted blood and transferred to a clean tube. Fucosylated chondroitin sulfate (FCS) was incubated in concentrations of 0.1 mg/mL, 0.4 mg/mL and 1 mg/mL for 30 minutes at 37° C. and the complement was examined by assaying total complement activity (CH50). Complement inhibition was about 40% at a FCS concentration of 0.1 mg/mL, about 83% at a concentration of 0.4 mg/mL and complete at a concentration of 1.0 mg/mL.

Experiment [3] deals with C3a. The experiment can be described thus: Complement factor C3a levels in normal human serum, with or without HAGG. The settings on record: alone and with HAGG, 30 minutes at 37° C. The procedure: (§1) An experiment to measure the complement factors C3a and C5a was carried out at […] for 30 minutes using heat-aggregated gamma globulin (HAGG, at 14 mg/mL), a complement activator with known activity, as a positive control.
(§2) Four separate mixtures were prepared by mixing 8 parts of normal human serum with: (1) 2 parts saline, (2) 1 part saline and 1 part HAGG, (3) 1 part saline and 1 part fucosylated chondroitin sulfate (FCS), or (4) 1 part HAGG and 1 part FCS. These four mixtures were then incubated for 30 minutes at 37° C. and the complement was examined by assaying for levels of C3a and C5a.

The test system of experiment [4] is C5a. Kind of experiment: Complement factor C5a levels in normal human serum, with or without HAGG. Conditions: alone and with HAGG, 30 minutes at 37° C. The procedure: as §1, §2

The values that follow come from US20080160099A1, “Methods For Treating or Preventing a Vascular Disease” (THE TRUSTEES OF COLUMBIA UNIVERSITY IN THE CITY OF NEW YORK, priority 2004, published 2008).

Consider `CCC(C)CCCCCCCCCCC(=O)O` (centres unmarked) [12-methyltetradecanoic acid], for which, in experiment [1], the “MMP-2 inhibitory ability (in words)” value is “inhibit aneurysmal fibroblast MMP-2 activity” and the “MMP-2 Inhibitory Activity” value is reported as “+”.

In the case of `Oc1cc(O)c2c(c1)O[C@H](c1cc(O)c(O)c(O)c1)[C@H](O)C2` [(−)-epigallocatechin], in experiment [1], the “MMP-2 inhibitory ability (in words)” value is given as “inhibit aneurysmal fibroblast MMP-2 activity” and the “MMP-2 Inhibitory Activity” value is recorded as “+”.

With fucosylated chondroitin sulfate, the “MMP-2 inhibitory ability (in words)” value in experiment [1] is recorded as “inhibit aneurysmal fibroblast MMP-2 activity”. For the same compound, in experiment [1], the “MMP-2 Inhibitory Activity” value is recorded as “+++”. In addition, the “Complement inhibition (CH50)” value is listed as “about 40%” in experiment [2] (0.1 mg/mL), “about 83%” in experiment [2] (0.4 mg/mL) and “complete” in experiment [2] (1.0 mg/mL). Further, the “inhibitory activity toward C3a” value in experiment [3] is recorded as “strong inhibitory activity”. Besides, the “inhibitory activity toward C5a” value in experiment [4] was “strong inhibitory activity”.
